According to patent publication US9783503B2, “Crystalline forms of an estrogen receptor modulator” (Genentech, Inc., priority 2014, dated 2017):
“Also recorded” adds a separate entry of the source. Where a name gives a salt, the structure may show the parent alone. Blank lines part the entries; values can stand above or below the compound they belong to.

Tests used:
[1] = tested on: xenograft models of ER+ breast cancer; assay: Tamoxifen-sensitive and tamoxifen-resistant xenograft models of ER+ breast cancer; type: in vivo
[2] = Static storage stability at elevated humidity, checked by XRPD; type: physicochemical
Description: X-Ray powder diffraction patterns were collected on a Bruker AXS C2 GADDS or a Bruker AXS D8 Advance diffractometer.

[3] = Thermodynamic aqueous solubility; conditions: for solubility at 24 h: water, 25 °C, thermodynamic from solid
Method: The suspension was equilibrated at 25° C. for 24 hours then the pH was measured. The suspension was then filtered through a glass fibre C filter. […] Different volumes of the standard, diluted and undiluted sample solutions were injected.
Analysis was performed on an Agilent HP1100 series system equipped with a diode array detector and using ChemStation software vB.02.01-SR1.

[4] = Gravimetric Vapor Sorption (GVS); type: physicochemical
Method: Sorption isotherms were obtained using a SMS DVS Intrinsic moisture sorption analyzer, controlled by DVS Intrinsic Control software v1.0.0.30. The sample temperature was maintained at 25° C. by the instrument controls. The humidity was controlled by mixing streams of dry and wet nitrogen, with a total flow rate of 200 mL/min. The relative humidity was measured by a calibrated Rotronic probe (dynamic range of 1.0-100% RH), located near the sample. The weight change, (mass relaxation) of the sample as a function of % RH was constantly monitored by the microbalance (accuracy+0.005 mg).
Typically 5-20 mg of sample was placed in a tared mesh stainless steel basket under ambient conditions. The sample was loaded and unloaded at 40% RH and 25° C. (typical room conditions). A moisture sorption isotherm was performed as outlined below (2 scans giving 1 complete cycle). The standard isotherm was performed at 25° C. at 10% RH intervals over a 0-90% RH range. Data analysis was undertaken in Microsoft Excel using DVS Analysis Suite v6.0.0.7.
The sample was recovered after completion of the isotherm and re-analyzed by XRPD.

breast tumor cell = assay: Breast tumor cell proliferation; type: cell-based
Oral bioavailability = conditions: in vivo

Structure (SMILES): C[C@]12CC[C@@H]3c4ccc(O)cc4C[C@@H](CCCCCCCCC[S+]([O-])CCCC(F)(F)C(F)(F)F)[C@H]3[C@@H]1CC[C@@H]2O (stereo partly shown) [fulvestrant, reference compound]
- efficacy compared with the free acid ([1]; in some of these models): less efficacious

- change of XRPD pattern after storage ([2]; 40° C. and 75% RH for 7 days): converted to Form 1
Structure (SMILES): CC/C(=C(/c1ccc(/C=C/C(=O)O)cc1)c1ccc2[nH]ncc2c1)c1ccc(F)cc1Cl [Pattern 2, (E)-3-(4-((E)-2-(2-chloro-4-fluorophenyl)-1-(1H-indazol-5-yl)but-1-en-1-yl)phenyl)acrylic acid, N-methyl glucamine salt]

- pH of saturated aqueous solution ([3]; saturated aqueous solution, 25° C., 24 hours): about 5.45
- solubility at 24 h ([3]; pH 5.45, water, aqueous solubility, saturated aqueous solution, equilibrated at 25° C. for 24 hours): 15.8 mg/mL
- change by XRPD upon extended storage ([2]; extended storage in high humidity conditions at 40° C.): no visible change
- hysteresis of sorption isotherm ([4]; 0-90% RH, 25° C.): no hysteresis
- change of XRPD pattern after GVS analysis ([4]; after completion of the isotherm): No change in the XRPD pattern
- mass uptake ([4]; between 0-90% RH, 25° C.): ca. 4.75%
Structure (SMILES): CC/C(=C(/c1ccc(/C=C/C(=O)O)cc1)c1ccc2[nH]ncc2c1)c1ccc(F)cc1Cl [Form 1, (E)-3-(4-((E)-2-(2-chloro-4-fluorophenyl)-1-(1H-indazol-5-yl)but-1-en-1-yl)phenyl)acrylic acid, N-methyl glucamine salt]
- change of XRPD pattern after storage ([2]; 25° C. and 96% RH for 7 days): no visible change; also recorded: No difference in the XRPD patterns
- change of XRPD pattern after storage ([2]; 40° C. and 75% RH for 7 days): no visible change; also recorded: no difference in the XRPD patterns

- solubility at 24 h ([3]; Solubility, aqueous, crystalline salt prepared from MeCN (300 Vols)): 10.6 mg/mL
Structure (SMILES): CC/C(=C(/c1ccc(/C=C/C(=O)O)cc1)c1ccc2[nH]ncc2c1)c1ccc(F)cc1Cl [N-Methylglucamine, (2S,3R,4R,5R)-2,3,4,5,6-pentahydroxy-N-methylhexan-1-aminium (E)-3-(4-((E)-2-(2-chloro-4-fluorophenyl)-1-(1H-indazol-5-yl)but-1-enyl)phenyl)acrylate]

- oral bioavailability (Oral bioavailability): good oral bioavailability
Structure (SMILES): CC/C(=C(/c1ccc(/C=C/C(=O)O)cc1)c1ccc2[nH]ncc2c1)c1ccc(F)cc1Cl [(E)-3-(4-((E)-2-(2-Chloro-4-fluorophenyl)-1-(1H-indazol-5-yl)but-1-en-1-yl)phenyl)acrylic acid]
- anti-tumor activity ([1]; both tamoxifen-sensitive and tamoxifen-resistant xenograft models): dose dependent anti-tumor activity
- ER-α tumor levels ([1]; tamoxifen-resistant xenograft models): reduction of ER-α tumor levels
- Efficacious doses ([1]; xenograft models of ER+ breast cancer): 1 to 100 mg/kg/day
- breast tumor cell proliferation (breast tumor cell): inhibition of breast tumor cell proliferation
